Among the data in patent publication US11111242B2, “Pyrrolo[2,3-d]pyrimidinyl, pyrrolo[2,3-b]pyrazinyl and pyrrolo[2,3-d]pyridinyl acrylamides” (Pfizer Inc., priority 2013, dated 2021) are IC50 values, retold here.

The subject of one experiment is IL-15 induced P-STAT5 in human PBMC (total lymphocytes). In words: PBMC IL-15 Induced P-STAT5. Conditions: Homo sapiens, PBMC, IL-15 stimulated, read-out: PBMC IL15-pSTAT5 IC50. It is filed as cell-based. The procedure: PBMC IL-15 Induced P-STAT5
Frozen human PBMC (200-250 million cells/vial) was thawed at 37° C. The cells were transferred to 10 mL warm medium in a 50-mL conical tube, and centrifuged at 1,200 RPM at room temperature for 5 min. The supernatant was aspirated. […] After adding 47 ml D-PBS (37° C.) to PBMC/FBS suspension, centrifuging at 1,200 RPM at room temperature for 5 min, and aspirating the supernatant, the cells were resuspended in 20 mL warm RPMI medium. Ninety μL of cell suspension were pipetted per well in a 96-well, deep-well, V-bottom plate, and the plate was incubated at 37° C. for 30 min. […] After adding 0.8 mL staining buffer per well, the plates were centrifuged at 1,200 RPM (Beckman GS-6R or Sorvall Legend) at room temperature for 5 min, and again the supernatant was aspirated using a 8-channel or 12-channel manifold. The plate was vortexed, and 0.35 mL 90% methanol/10% H2O (−20° C.) was added per well, and the plate incubated on ice for 20 min. After again adding 0.8 mL staining buffer per well, the plates were centrifuged at 1,200 RPM (Beckman GS-6R or Sorvall Legend) at room temperature for 5 min, and again the supernatant was aspirated using a 8-channel or 12-channel manifold, and then 0.8 mL Staining buffer was added per well. After once again adding 0.8 mL staining buffer per well, the plates were centrifuged at 1,200 RPM (Beckman GS-6R or Sorvall Legend) at room temperature for 5 min, and again the supernatant was aspirated using a 8-channel or 12-channel manifold. […] Samples of 250 μL/well were transferred to a 96-well U-bottom plate, and the FACS analysis was performed gating on total lymphocytes. Samples were analyzed using a BD Calibur™ or BD FACSCanto™ flow cytometer equipped with the BD High Throughput Sampler.
One may read the IC50 as the point on the concentration scale where inhibition reaches its midpoint. For `C=CC(=O)N1CC[C@H]2CCN(c3ncnc4[nH]ccc34)[C@H]2C1` (racemic) [Example 21, rac-1-((3aR,7aR)-1-(7H-Pyrrolo[2,3-d]pyrimidin-4-yl)hexahydro-1H-pyrrolo[2,3-c]pyridin-6(2H)-yl)prop-2-en-1-one], the IC50 was 236 nM.

On to `C=CC(=O)N1CCC[C@@H](Nc2ncnc3[nH]cc(-c4cccnc4)c23)C1` [Example 26, 1-[(3R)-3-{[5-(pyridin-3-yl)-7H-pyrrolo[2,3-d]pyrimidin-4-yl]amino}piperidin-1-yl]prop-2-en-1-one], for which the IC50 was 254 nM.

`C=CC(=O)N1CCC[C@@H](Nc2ncnc3[nH]cc(-c4ccc(C(=O)N(C)C)cc4)c23)C1` [Example 27, 4-(4-{[(3R)-1-acryloylpiperidin-3-yl]amino}-7H-pyrrolo[2,3-d]pyrimidin-5-yl)-N,N-dimethylbenzamide]: the IC50 is 1870 nM.

On to `C=C(C(=O)N1CC[C@@H]2CCN(c3ncnc4[nH]ccc34)[C@@H]2C1)C(F)(F)F` [Example 41, 1-((3aS,7aS)-1-(7H-Pyrrolo[2,3-d]pyrimidin-4-yl)hexahydro-1H-pyrrolo[2,3-c]pyridin-6(2H)-yl)-2-(trifluoromethyl)prop-2-en-1-one], for which the IC50 amounted to 446 nM.

Turning to `C#Cc1c[nH]c2ncnc(N3CC[C@H]4CCN(C(=O)C=C)C[C@H]43)c12` [Example 48, 1-[(3aS,7aS)-1-(5-ethynyl-7H-pyrrolo[2,3-d]pyrimidin-4-yl)octahydro-6H-pyrrolo[2,3-c]pyridin-6-yl]prop-2-en-1-one], the IC50 worked out at 65.2 nM.

The experiment is the same for the next values; noted with them: IL-15 stimulated, read-out: PBMC IL15-pSTAT5 IC50.
For `C=CC(=O)N1C[C@H](C)C[C@@H](Nc2ncnc3[nH]ccc23)C1` (racemic) [Example 65, Rac-1-((3R,5R)-3-((7H-Pyrrolo[2,3-d]pyrimidin-4-yl)amino)-5-methylpiperidin-1-yl)prop-2-en-1-one], the IC50 came out at 3740 nM.

Turning to `C=CC(=O)N1C[C@H](Nc2ncnc3[nH]ccc23)CC[C@@H]1C` [Example 5, 1-((2S,5R)-5-((7H-pyrrolo[2,3-d]pyrimidin-4-yl)amino)-2-methylpiperidin-1-yl)prop-2-en-1-one], the IC50 worked out at 51.7 nM.

As for `C=CC(=O)N1CCC[C@@H](Nc2ncnc3[nH]cc(CC#N)c23)C1` [Example 20, (R)-2-(4-((1-Acryloylpiperidin-3-yl)amino)-7H-pyrrolo[2,3-d]pyrimidin-5-yl)acetonitrile], the half-inhibitory concentration (IC50) turned out to be 362 nM.

In the case of `C=CC(=O)N1CCC[C@@H](Nc2ncnc3[nH]cc(-c4cncc(F)c4)c23)C1` [Example 23, 1-[(3R)-3-{[5-(5-fluoropyridin-3-yl)-7H-pyrrolo[2,3-d]pyrimidin-4-yl]amino}piperidin-1-yl]prop-2-en-1-one], the half-maximal inhibitory concentration (IC50) amounted to 188 nM.

Take `C=CC(=O)N1CCC[C@@H](Nc2ncnc3[nH]cc(-c4cncc(OC)c4)c23)C1` [Example 24, 1-[(3R)-3-{[5-(5-methoxypyridin-3-yl)-7H-pyrrolo[2,3-d]pyrimidin-4-yl]amino}piperidin-1-yl]prop-2-en-1-one]: the IC50 is 320 nM.

Consider `C=CC(=O)N1CCC[C@@H](Nc2ncnc3[nH]cc(-c4ccccc4O)c23)C1` [Example 25, 1-[(3R)-3-{[5-(2-hydroxyphenyl)-7H-pyrrolo[2,3-d]pyrimidin-4-yl]amino}piperidin-1-yl]prop-2-en-1-one], for which the IC50 stood at 84 nM.

As to `C=CC(=O)N1CCC[C@@H](Nc2ncnc3[nH]cc(-c4ccc(C(=O)NC(C)C)cc4)c23)C1` [Example 29, 4-(4-{[(3R)-1-acryloylpiperidin-3-yl]amino}-7H-pyrrolo[2,3-d]pyrimidin-5-yl)-N-(propan-2-yl)benzamide], the IC50 stood at 464 nM.

For the compound `C=CC(=O)N1CCC[C@@H](Nc2ncnc3[nH]cc(CCO)c23)C1` [Example 55, (R)-1-(3-((5-(2-Hydroxyethyl)-7H-pyrrolo[2,3-d]pyrimidin-4-yl)amino)piperidin-1-yl)prop-2-en-1-one], the IC50 is 430 nM.
